Measurements reported in ChEMBL document CHEMBL1145561, “Pyrrolo[1,2-b]pyridazin-2-ones as potent inhibitors of HCV NS5B polymerase” (Bioorg Med Chem Lett, 2008).

How the values were obtained:
Hepatitis C virus [1] = assay: Inhibition of HCV 1b NS5B RNA polymerase; set-up: species or system Hepatitis C virus subtype 1b
Hepatitis C virus [2] = assay: Antiviral activity against HCV 1b in human Huh7/C24 cells after 72 hrs by replicon cell assay; format: functional, organism-based, Hepacivirus hominis; conditions: genotype 1b, Huh-7, 72 h
[3] = (§1) Metabolic stability in human liver microsomes assessed as half life at 5 uM; format: ADME, Microsome; conditions: liver microsomes
[4] = Metabolic stability in human liver microsomes assessed as remains after 60 mins at 5 uM; format: ADME, Microsome; conditions: read-out: Stability
[5] = Cytotoxicity against human Huh7/C24 cells after 72 hrs; format: cell-based, Huh-7
Cynomolgus monkey [6] = assay: AUC (infinity) in cynomolgus monkey at 1 mg/kg, iv; format: ADME, organism-based, Macaca fascicularis, Plasma; set-up: time infinity, dose 1 mg/kg, route intravenous; conditions: in vivo
[7] = Metabolic stability in cynomolgus monkey liver microsomes assessed as half life at 1 uM; format: ADME, Macaca fascicularis, Microsome
[8] = Solubility at pH 7.5; format: physicochemical; conditions: buffer
Cynomolgus monkey [9] = assay: AUC (infinity) in cynomolgus monkey at 1 mg/kg, po; format: ADME, organism-based, Macaca fascicularis, Plasma; set-up: time infinity, dose 1 mg/kg, route oral; conditions: in vivo
[10] = Apparent permeability from apical to basolateral side in human Caco-2 cells at 10 uM; format: ADME, cell-based
[11] = Oral bioavailability in cynomolgus monkey at 1 mg/kg; format: ADME, organism-based, Macaca fascicularis; conditions: in vivo
[12] = Clearance in cynomolgus monkey at 1 mg/kg, iv; format: ADME, organism-based, Macaca fascicularis; set-up: dose 1 mg/kg, route intravenous; conditions: in vivo
[13] = Metabolic stability in cynomolgus monkey liver microsomes assessed as remains after 60 mins at 1 uM; format: ADME, Macaca fascicularis, Microsome; conditions: read-out: Stability
Liver microsomes = assay: as §1; format: ADME, Microsome; conditions: microsomes, 5 µM

Row | Compound | IC50 (Hepatitis C virus [1]) [nM] | EC50 (Hepatitis C virus [2]) [nM] | half-life at 5 µM [3] [min] | remaining at 1 h, 5 µM [4] [%] | CC50 at 72 h [5] [nM] | AUC (Cynomolgus monkey [6]) [ng·h/mL] | half-life at 1 µM [7] [min] | solubility [8] [µM] | AUC (Cynomolgus monkey [9]) [ng·h/mL] | Papp A→B at 10 µM [10] [×10⁻⁶ cm/s] | bioavailability [11] [%] | clearance [12] [mL/min/kg] | remaining at 1 h, 1 µM [13] [%] | t1/2 (Liver microsomes) [min]
1 | CC(C)CCn1c(=O)c(C2=NS(=O)(=O)c3cc(NS(C)(=O)=O)ccc3N2)c(O)c2cc(C#N)cn21 | 320 |  |  |  |  |  |  |  |  |  |  |  |  | 
2 | CS(=O)(=O)Nc1ccc2c(c1)S(=O)(=O)N=C(c1c(O)c3cccn3n(Cc3ccc(F)c(Cl)c3)c1=O)N2 | 25 | 22 | > 60 | 102 | > 1000 |  |  |  |  |  |  |  |  | 
3 | CC(C)CCn1c(=O)c(C2=NS(=O)(=O)c3cc(N(C)S(C)(=O)=O)ccc3N2)c(O)c2cccn21 | 110 | 190 | > 60 | 55 | > 33000 | 1060 | 60 | > 100 | 79 | 4.3 | 7 | 16 |  | 
4 | COc1ccc2c(c1)S(=O)(=O)N=C(c1c(O)c3cccn3n(CCC(C)C)c1=O)N2 | 2200 | 17000 |  |  | > 100000 |  |  |  |  |  |  |  |  | 
5 | CC(C)NCC(O)COc1cccc2ccccc12 (stereo unspecified) [PROPRANOLOL] |  |  |  |  |  |  |  |  |  | 10 |  |  |  | 
6 | CC(C)CCn1c(=O)c(C2=NS(=O)(=O)c3ccccc3N2)c(O)c2cccn21 | 980 | 5300 | 14 |  | > 100000 | 20500 | 11 | > 200 | 12900 | 11 | 63 | 49 |  | 
7 | CS(=O)(=O)Nc1ccc2c(c1)S(=O)(=O)N=C(c1c(O)c3cccn3n(Cc3ccc(F)cc3)c1=O)N2 | < 10 |  | > 60 | 86 | > 1000 | 539 | > 60 | > 100 | 6 | 0.1 | 1 | 31 | 90 | 
8 | CN(c1ccc2c(c1)S(=O)(=O)N=C(c1c(O)c3cccn3n(CCC(C)(C)C)c1=O)N2)S(C)(=O)=O | 60 | 120 | 49 |  | > 33000 |  |  |  |  |  |  |  |  | 
9 | O=c1c(C2=NS(=O)(=O)c3cc(C4CCCS4(=O)=O)ccc3N2)c(O)c2cccn2n1Cc1ccc(F)cc1 (racemic) | 130 | 380 | > 60 | 100 | > 33000 |  |  |  |  |  |  |  |  | 
10 | CC(C)CCn1c(=O)c(C2=NS(=O)(=O)c3cc(NS(=O)(=O)C4CC4)ccc3N2)c(O)c2cccn21 | 160 | 96 | 59 |  | > 33000 | 3770 | > 60 | > 100 | 141 | 0.8 | 4 | 5 | 87 | 
11 | CC(C)CCn1c(=O)c(C2=NS(=O)(=O)c3cc(NS(C)(=O)=O)ccc3N2)c(O)c2cc(F)cn21 | 27 | 19 | > 60 | 78 | > 1000 |  |  |  |  |  |  |  |  | 
12 | CC(C)(C)CCn1c(=O)c(C2=NS(=O)(=O)c3cc(NS(C)(=O)=O)ccc3N2)c(O)c2cccn21 | < 10 | 5 | 10 |  | > 1000 | 1210 | 14 | > 100 | 25 | 0.7 | 2 | 14 |  | 
13 | CN(c1ccc2c(c1)S(=O)(=O)N=C(c1c(O)c3cccn3n(Cc3ccc(F)cc3)c1=O)N2)S(C)(=O)=O | 130 | 330 | > 60 | 90 | > 10000 | 1780 | > 60 | > 60 | 107 | 0.9 | 6 | 9 | 90 | 
14 | CC(C)CCn1nc(-c2cccs2)c(O)c(C2=Nc3ccc(NS(C)(=O)=O)cc3S(=O)(=O)N2)c1=O |  |  |  |  |  | 1330 |  | > 100 | 30 | 0.03 | 2 |  |  | 
15 | CC(C)CCn1c(=O)c(C2=Nc3ccc(NS(C)(=O)=O)cc3S(=O)(=O)N2)c(O)c2cccn21 | < 10 | 8.5 | 42 |  | > 1000 |  | > 60 | > 100 | 83 | 0.2 |  |  | 66 | 
16 | O=c1c(C2=NS(=O)(=O)c3ccccc3N2)c(O)c2cccn2n1Cc1ccc(F)cc1 | 850 |  |  |  |  |  |  |  |  |  |  |  |  | 45
